These results are taken from US9834808B2, “Methods for rapid antibiotic susceptibility testing” (SeLux Diagnostics, Inc., priority 2016, dated 2017).

In brackets after ≈: the same amount, converted by molar mass.

Assay [1] relates to S. aureus (QC strain 29213). The assay can be described thus: standard CLSI reference method MIC (fast-AST MICs stated to be similar). Type of assay: cell-based, Staphylococcus aureus. The protocol:
Microorganism detection is then performed visually.
S. aureus (QC strain 29213) was cultured under standard sterile conditions in Mueller-Hinton (MH) broth overnight at 37° C. with shaking.
The microplates, each well containing 100 μL, were inoculated with the prepared antimicrobial dilutions and incubated at 37° C. for 3 hours, 45 minutes for determination using the present invention (the “fast-AST” technique). The “fast-AST” microplates were removed from the shaking incubator after 3 hours, 45 minutes and centrifuged for 2.5 minutes at 2500×g in order to pellet. The MH broth was then aspirated and 100 μL of 25 mM PBS was added to each well of both microplates. Then, 10 µL of the chemical moiety (here, Europium-Cryptate formulation) was added to each well (to 20 ng/well) and 10 μL of 0.005% Glutaraldehyde (as the signaling agent) was added to each well. The two microplates were then shaken at 300 rpm for 30 minutes. After, both plates were centrifuged for 2.5 minutes at 2500×g to pellet. The solution was aspirated and a wash of 200 μL PBS-tween was added to each well, followed by a centrifugation to pellet. After aspiration of solution, a second identical wash of 200 μL PBS-tween occurred, followed by a final centrifugation to pellet. 200 μL PBS-tween was added to each well. The plate was then read using time resolved fluorescence on a BioTek H1 plate reader.

The subject of assay [2] is clinical S. aureus strain. The assay can be described thus: CLSI overnight method MIC. Particulars: Staphylococcus aureus.
The test system of assay [3] is Escherichia coli (ATCC 11303). The assay can be described thus: fluorescent nanoparticle signaling agent assay (free signaling agents in filtrate). The assay is classed as cell-based. The protocol: (§1) Both Escherichia coli (ATCC 11303) and ampicillin-resistant E. coli (ATCC 39936) were cultured under standard sterile conditions in LB broth at 37° C. Concentrations were determined by measuring absorbance at 600 nm (McFarland), and a concentration of 5×10^5 CFU/ml was set by dilution. Ampicillin was then weighed into sterile water and added in appropriate concentrations to sterile 3 mL microfuge tubes. Bacteria and nanoparticles at a concentration of 8×10^8 nanoparticles/ml were both added to these ampicillin-coated sterile microfuge tubes. The tubes were then capped and placed at 37° C. for 1.5 hours with continuous shaking, after which they were opened and each was passed through a 0.2 μm filter. Next, 100 μL of each filtrate was added to a well of a 96-well plate and 150 μL of a development solution (5% tetramethylammonium hydroxide in ethanol) was added to each well. After 5 minutes the plate was read at 490 nm excitation/530 nm emission in a SpectraMax M2 microplate reader (Molecular Devices).
(§2) An assay for free signaling agents, which are not associated with intact bacteria, was performed after intact bacteria were removed by filtration through a 0.2 μm filter.

Assay [4] deals with clinical resistant E. coli ("Clinical"). The assay can be described thus: fast-AST with Europium-Cryptate/glutaraldehyde, clinical strain. Type of assay: cell-based, Escherichia coli. Particulars: 3 hours 45 minutes incubation, FIG. 17, FIG. 21. The protocol:
(§3) Both Escherichia coli (QC strain, ATCC 25922) and clinical resistant E. coli (“Clinical”) were cultured under standard sterile conditions in Mueller-Hinton (MH) broth overnight at 37° C. with shaking. The E. coli concentration from the overnight culture was then set to 5×10^5 CFU/ml using the McFarland standard technique for optical density readings at 600 nm. Concurrently, two sterile 96-well microplates were prepared with serial dilutions of a specified antimicrobial (see below) and a no-antimicrobial (saline) control, all in MH broth. The microplates, each well containing 200 μL, were inoculated with the prepared antimicrobial dilutions and incubated at 37° C. for 3 hours, 45 minutes for determination using the present invention (the “fast-AST” technique). The “fast-AST” microplates were removed from the shaking incubator after 3 hours, 45 minutes and centrifuged for 2.5 minutes at 2500 g in order to pellet. The MH broth was then aspirated and 100 μL of water was added to each well of both microplates. Then, 10 μL of the chemical moiety (here, Europium-Cryptate formulation) was added to each well (to 20 ng/well) and 10 μL of 5% Glutaraldehyde (as the signaling agent) was added to each well. The two microplates were then shaken at 300 rpm for 30 minutes. […] The plate was then read using time resolved fluorescence on a BioTek H1 plate reader.

The subject of assay [5] is Escherichia coli (QC strain, ATCC 25922) and clinical resistant E. coli ("Clinical"). The assay can be described thus: fast-AST with Europium-Cryptate/glutaraldehyde, QC strain compared with clinical strain. The assay is classed as cell-based. Particulars: 3 hours 45 minutes incubation, FIG. 16 to FIG. 23. The protocol:
as §3

In assay [6] the test system is ampicillin-resistant E. coli (ATCC 39936). The assay can be described thus: fluorescent nanoparticle signaling agent assay (free signaling agents in filtrate). The assay is classed as cell-based, Escherichia coli. The conditions noted are these: 100 μg/ml ampicillin, 1.5 hours, 0.2 μm filtrate; FIG. 41. The protocol:
as §1, §2

For assay [7], the system named is Pseudomonas aeruginosa (ATCC strain 27853). The assay can be described thus: fast-AST MIC determination (HRP-conjugated anti-P. aeruginosa antibody signaling agent). Type of assay: cell-based. The conditions noted are these: ATCC27853, 3.5 hours incubation, susceptible strain, FIG. 6, FIG. 7. The protocol:
(§4) Similarly, a culture of Pseudomonas aeruginosa (ATCC strain 27853) was grown using MH broth overnight at 37° C. with vigorous shaking. […] The data shown in FIG. 6 depicts from the 5 minute point after the start of incubation with detection solution. […] The MIC determined by both techniques is the same: 4 μg/ml.
(§5) The MIC for the resistant P. aeruginosa strain, ATCC BAA-2108, was determined similarly. The same 96-well microplate was used for both strains, with 48 wells dedicated to each strain.

Assay [8] has the same test system. The assay can be described thus: standard overnight growth, OD600 control MIC determination. The assay is classed as cell-based. The conditions noted are these: ATCC27853, overnight (>12 hours) incubation, FIG. 6. The protocol: as §4
Assay [9] concerns resistant P. aeruginosa strain, ATCC BAA-2108. The assay can be described thus: fast-AST MIC determination, resistant strain. The assay is classed as cell-based. Particulars: Pseudomonas aeruginosa, ATCCBAA2108, FIG. 7. The protocol:
as §4, §5

Where [10] appears, read: standard CLSI reference method, fast-AST MICs similar, FIG. 24 to FIG. 26.

By MIC is commonly meant the lowest concentration found to suppress growth. The low end stands for inhibition by little substance, the high end for a need for much substance. Turning to `CN[C@H](CC(C)C)C(=O)N[C@H]1C(=O)N[C@@H](CC(N)=O)C(=O)N[C@H]2C(=O)N[C@H]3C(=O)N[C@H](C(=O)N[C@H](C(=O)O)c4cc(O)cc(O)c4-c4cc3ccc4O)[C@H](O)c3ccc(c(Cl)c3)Oc3cc2cc(c3O[C@@H]2O[C@H](CO)[C@@H](O)[C@H](O)[C@H]2O[C@H]2C[C@](C)(N)[C@H](O)[C@H](C)O2)Oc2ccc(cc2Cl)[C@H]1O` [Vancomycin], the results for the MIC in assay [1] (Staphylococcus aureus) and in assay [2] were 0.5 to 2 mg/L (≈ 0.345 to 1.38 µM) and 8 mg/L (≈ 5.52 µM), respectively.

For `CC1(C)S[C@@H]2[C@H](NC(=O)[C@H](N)c3ccccc3)C(=O)N2[C@H]1C(=O)O` [ampicillin], the “fluorescent signal of free signaling agent” value in assay [3] (100 μg/ml ampicillin, 1.5 hours, 0.2 μm filtrate, FIG. 41) is listed as “significant increase in fluorescence”; in assay [6], “low fluorescent signals”. In assay [3] (Escherichia coli, ATCC11303, varying ampicillin concentrations, fluorescent nanoparticle assay, FIG. 42), this compound came in with an MIC of approximately 15 mg/L (≈ 42.9 µM). The “susceptibility call of the clinical strain” value in assay [4] is recorded as “resistant”. Also, in assay [5], the “MICs of QC strain compared with clinical resistant strain” value is given as “dissimilar MICs”.

Turning to `CC(C)(O/N=C(\C(=O)N[C@@H]1C(=O)N2C(C(=O)[O-])=C(C[n+]3ccccc3)CS[C@H]12)c1csc(N)n1)C(=O)O` [ceftazidime], the minimum inhibitory concentration (MIC) in assay [7] and in assay [8] was 4 mg/L (≈ 7.32 µM) each time.

In the case of `C[C@@H](O)[C@H]1C(=O)N2C(C(=O)O)=C(SCCN=CN)C[C@H]12` [imipenem], the results for the minimum inhibitory concentration (MIC) in [9] and in assay [7] were 32 mg/L (≈ 107 µM) and 2 mg/L (≈ 6.68 µM), respectively.

For Penicillin, in assay [1] (setting [10]), the MIC is 0.25 to 2 mg/L.

On to Teicoplanin, for which, in assay [1] (setting [10]), the MIC was in the range of 0.25 to 1 mg/L.
